According to PMC8170916, “Sublingual AKBA Exerts Antidepressant Effects in the Aβ-Treated Mouse Model” (Biomolecules, 2021):

Experiments:
[1] = tested on: depressive-like behavior induced by Aβ; conditions: through the increased levels of NA; no reference given; cited from earlier work
[2] = tested on: Aβ-treated rats; parameters: method as in PMID 28499898; conditions: acute treatment; cited from earlier work
[3] = tested on: Aβ-treated mice; assay: Splash test in Aβ-treated mice; format: in vivo; conditions: mice 7 days after icv Aβ 4 µM; sublingual AKBA 5 mg/kg 30 min before testing; Aβ vs SHAM, Aβ+AKBA vs Aβ
[4] = tested on: Aβ-treated mice; assay: Tail suspension test in Aβ-treated mice; format: in vivo; conditions: mice 7 days after icv Aβ 4 µM, sublingual AKBA 5 mg/kg 30 min before, Aβ vs SHAM
[5] = tested on: noradrenaline (NA); assay: Noradrenaline quantification in PFC and HIPP by HPLC with electrochemical detection; format: in vivo; conditions: HIPP, mice 7 days after icv Aβ 4 µM; sublingual AKBA 5 mg/kg 30 min earlier
Procedure: (§1) All behavioral experiments were conducted at 5 or 30 min after sublingual administrations of AKBA or vehicle in either SHAM or Aβ-treated mice. Based upon behavioral outcomes observed, neurochemical and biochemical quantifications were performed 30 min after AKBA or vehicle administration in either SHAM or Aβ-treated mice.
(§2) Anesthetized animals were sacrificed by cervical dislocation. Brains were immediately removed and kept on ice for dissection of PFC and HIPP, according to the atlas of Paxinos and Franklin. Tissues were frozen and stored at −80 °C until analyses were carried out. Samples (PFC and HIPP) were homogenized (1:10 w/v) at 4 °C using a PBS buffer containing a 1:100 protease and phosphatase inhibitor cocktail (HALT inhibitors, Thermo Fisher Scientific, Cleveland, OH, USA) for biochemical analyses or perchloric acid 0.1 M for neurochemical analyses. Homogenates were centrifuged at 13,000× g at 4 °C for 20 min, and supernatants were used for further determinations.
(§3) 5-HT, noradrenaline (NA), and KYN levels were measured in the PFC and HIPP of mice by HPLC coupled with an electrochemical detector (Ultimate ECD, Thermo Scientific Dionex, Milan, Italy) as already reported. Separation was performed by a LC18 reverse phase column (Kinetex, 150 mm × 3.0 mm, ODS 5 μm; Phenomenex, Castel Maggiore-Bologna, Italy). The detection was accomplished by a thin layer amperometric cell (Thermo Scientific Dionex, Milan, Italy) with a 5 mm diameter glassy carbon electrode at a working potential of 400 mV (5-HT and NA) or 0.750 mV (KYN) vs. Pd. The mobile phase consisted of an aqueous buffer containing 75 mM NaH2PO4, 1.7 mM octane sulfonic acid, 0.3 mM EDTA, and acetonitrile 10%, buffered at pH 3.0. […] GLU concentrations were determined by HPLC coupled with fluorescence detection (emission length 460 nm; excitation length 340 nm), as previously published. […] Results were analyzed by Borwin software (version 1.50; Jasco, Cremella, Italy) and the amino acid concentration was expressed as µM. All data were normalized for total area weight and were expressed as concentration/mg of tissue.

[6] = tested on: glutamate (GLU); assay: Glutamate quantification in PFC and HIPP by HPLC with fluorescence detection; format: in vivo; conditions: mice 7 days after icv Aβ 4 µM, sublingual AKBA 5 mg/kg 30 min earlier
Procedure: as §1, §2, §3

[7] = tested on: kynurenine (KYN); assay: Kynurenine quantification in PFC and HIPP by HPLC with electrochemical detection; format: in vivo; conditions: mice 7 days after icv Aβ 4 µM, sublingual AKBA 5 mg/kg 30 min earlier
Procedure: as §1, §2
(§4) 5-HT, noradrenaline (NA), and KYN levels were measured in the PFC and HIPP of mice by HPLC coupled with an electrochemical detector (Ultimate ECD, Thermo Scientific Dionex, Milan, Italy) as already reported. Separation was performed by a LC18 reverse phase column (Kinetex, 150 mm × 3.0 mm, ODS 5 μm; Phenomenex, Castel Maggiore-Bologna, Italy). The detection was accomplished by a thin layer amperometric cell (Thermo Scientific Dionex, Milan, Italy) with a 5 mm diameter glassy carbon electrode at a working potential of 400 mV (5-HT and NA) or 0.750 mV (KYN) vs. Pd. The mobile phase consisted of an aqueous buffer containing 75 mM NaH2PO4, 1.7 mM octane sulfonic acid, 0.3 mM EDTA, and acetonitrile 10%, buffered at pH 3.0. The flow rate was kept at 0.7 mL·min-1 by an isocratic pump (Shimadzu LC-10 AD, Kyoto, Japan). Data acquisition and integration were performed by using Chromeleon software (version 6.80, Thermo Scientific Dionex, Milan, Italy). GLU concentrations were determined by HPLC coupled with fluorescence detection (emission length 460 nm; excitation length 340 nm), as previously published. Analyses were carried out using an LC18 reverse phase column (Kinetex, 150 mm × 3.0 mm, ODS 5 μm; Phenomenex, Castel Maggiore, Bologna, Italy) and detection was accomplished by pre-column derivatization with ophthalaldehyde/mercaptopropionic acid. The mobile phase consisted of a 50 mM sodium acetate buffer, at pH 6.95, with gradient methanol increasing linearly from 2 to 30% (v/v) over a 40 min run. […] Results were analyzed by Borwin software (version 1.50; Jasco, Cremella, Italy) and the amino acid concentration was expressed as µM. All data were normalized for total area weight and were expressed as concentration/mg of tissue.

[8] = tested on: 5-HT; assay: 5-HT quantification in PFC and HIPP by HPLC with electrochemical detection; format: in vivo; conditions: mice 7 days after icv Aβ 4 µM, sublingual AKBA 5 mg/kg 30 min earlier
Procedure: as §1, §2, §4

[9] = tested on: GFAP; assay: Western blotting quantification of GFAP in PFC and HIPP; format: in vivo; conditions: mice 7 days after icv Aβ 4 µM, sublingual AKBA 5 mg/kg 30 min earlier
Procedure: as §1, §2
(§5) The total amount of proteins was measured in homogenates by using Pierce BCA Assay (Thermo Fisher Scientific, Cleveland, OH, USA). Forty µg of the total lysate protein were separated by SDS-PAGE precast gels (Bio-Rad Laboratories Inc., Segrate (MI), Italy), transferred onto nitrocellulose membranes (Bio-Rad Laboratories Inc, Segrate (MI), Italy) and then blocked for 1 h in blocking buffer (SigmaAldrich, Milan, Italy). Rabbit polyclonal antibody against GFAP (Dako Products, USA; 1:2000), rabbit monoclonal antibody against CD11b (Abcam, Cambridge, MA, USA; ab133357, 1:1000) and mouse monoclonal antibody against NF-kB p65 (Santa Cruz Biotechnology, Dallas, Texas, USA; 1:2000) were used to incubate the membranes overnight at 4 °C. After HRP-conjugated specific antibody incubation, ECL reagent (Bio-Rad Laboratories Inc., Segrate (MI), Italy) was added to the immune complex and chemiluminescence was detected by ChemiDoc MP system (Bio-Rad Laboratories Inc., Segrate (MI), Italy). Optical densities of the bands were measured using ImageJ software (http://rsb.info.nih.gov/ij/ accessed on 15 March 2021) and normalized against bands relative to β-actin (1:5000, Abcam, Cambridge, UK).

[10] = tested on: CD11b; assay: Western blotting quantification of CD11b in PFC and HIPP; format: in vivo; conditions: mice 7 days after icv Aβ 4 µM, sublingual AKBA 5 mg/kg 30 min earlier
Procedure: as §1, §2, §5

[11] = tested on: NF-kB p65; assay: Western blotting quantification of NF-kB p65 in PFC and HIPP; format: in vivo; conditions: mice 7 days after icv Aβ 4 µM, sublingual AKBA 5 mg/kg 30 min earlier
Procedure: as §1, §2, §5

## CNCCC(Oc1ccc(C(F)(F)F)cc1)c1ccccc1 (stereo not drawn) [fluoxetine]
[1]
  Depressive-like behavior induced by Aβ: reduced the depressive-like behavior

## CNC1(c2ccccc2Cl)CCCCC1=O (stereo not drawn) [ketamine]
[2]
  Pro-depressive-like effect of Aβ in rats: able to revert

## Aβ: soluble amyloid beta 1-42 peptide (Tocris), injected icv at 4 µM to evoke a depressive-like phenotype [reference compound]
[3]
  Latency to leak in the splash test: significant increase in latency to leak
  Time spent performing self-care in the splash test: reduction in time spent performing self-care
[4]
  Immobility time in the tail suspension test: significant increase in the immobility time
[5]
  NA levels in the HIPP: significant increase in catecholamine levels
[6]; HIPP
  GLU levels in the HIPP: significantly increased hippocampal GLU levels
[6]; PFC
  GLU levels in the PFC: increased GLU levels compared to SHAM mice
[7]; HIPP
  KYN levels in the HIPP: increase in KYN levels induced by the peptide
[7]; PFC
  KYN levels in the PFC: significant increase in cortical KYN levels
[8]; HIPP
  5-HT levels in the HIPP: no differences among experimental groups
[8]; PFC
  5-HT levels in the PFC: significant decrease in PFC
[9]; HIPP
  GFAP levels in the HIPP (optical density normalized to actin): significant increase in hippocampal GFAP levels
[9]; PFC
  GFAP levels in the PFC (optical density normalized to actin): significant increase in GFAP levels
[10]; HIPP
  CD11b levels in the HIPP (optical density normalized to actin): significant enhanced hippocampal levels
[10]; PFC
  CD11b content in the PFC (optical density normalized to actin): no differences were found among experimental groups
[11]; HIPP
  NF-kB p65 content in the HIPP (optical density normalized to actin): significantly increased the levels of this transcription factor
[11]; PFC
  NF-kB p65 levels in the PFC (optical density normalized to actin): significantly increased cortical NF-kB levels
